17 compounds from ChEMBL document CHEMBL1795338, “Identification of pentacyclic triterpenes derivatives as potent inhibitors against glycogen phosphorylase based on 3D-QSAR studies” (Eur J Med Chem, 2011) can be followed below.

In the assay the target is T1, Glycogen phosphorylase, muscle form (Oryctolagus cuniculus, UniProt P00489).
T1 sequence (P00489 whole entry): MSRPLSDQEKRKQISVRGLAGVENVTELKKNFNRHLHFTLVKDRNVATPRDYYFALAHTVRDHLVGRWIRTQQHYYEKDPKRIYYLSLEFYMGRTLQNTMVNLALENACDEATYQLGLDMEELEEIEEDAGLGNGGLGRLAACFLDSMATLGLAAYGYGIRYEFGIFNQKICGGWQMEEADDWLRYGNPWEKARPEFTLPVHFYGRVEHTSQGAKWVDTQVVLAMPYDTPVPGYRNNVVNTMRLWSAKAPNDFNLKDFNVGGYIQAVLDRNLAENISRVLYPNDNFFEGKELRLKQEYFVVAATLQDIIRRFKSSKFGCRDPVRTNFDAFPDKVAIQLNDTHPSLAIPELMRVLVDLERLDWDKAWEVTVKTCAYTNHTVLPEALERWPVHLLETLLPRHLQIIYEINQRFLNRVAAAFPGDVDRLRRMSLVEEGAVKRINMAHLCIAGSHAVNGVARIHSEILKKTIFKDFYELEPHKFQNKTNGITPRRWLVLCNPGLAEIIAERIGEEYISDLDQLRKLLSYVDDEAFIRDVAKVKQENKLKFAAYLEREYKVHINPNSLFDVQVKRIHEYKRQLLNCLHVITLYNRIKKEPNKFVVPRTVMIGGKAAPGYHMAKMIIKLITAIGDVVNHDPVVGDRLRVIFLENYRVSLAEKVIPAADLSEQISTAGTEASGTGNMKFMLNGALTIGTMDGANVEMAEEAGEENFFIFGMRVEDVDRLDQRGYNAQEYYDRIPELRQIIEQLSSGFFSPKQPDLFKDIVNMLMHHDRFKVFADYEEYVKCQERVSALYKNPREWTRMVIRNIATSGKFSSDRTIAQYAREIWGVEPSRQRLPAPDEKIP
Nature of the assay: Inhibition of rabbit muscle glycogen phosphorylase A assessed as release of phosphate from glucose-1-phosphate after 25 mins by microplate reader based method.
Consider `CC1(C)CC[C@]2(C(=O)OCc3ccccc3)CC[C@]3(C)[C@H]([C@H](O)C[C@@H]4[C@@]5(C)CC[C@H](O)C(C)(C)[C@@H]5CC[C@]43C)[C@@H]2C1`, for which the half-maximal inhibitory concentration (IC50) (as a rule, the midpoint of a concentration-inhibition curve) came out at 5.35 µM. Under `CC1(C)CC[C@]2(C(=O)OCC(=O)O)CC[C@]3(C)C(=CC[C@@H]4[C@@]5(C)CC[C@H](O)C(C)(C)[C@@H]5CC[C@]43C)[C@@H]2C1` stands 62.6 µM; under `CCOC(=O)CCCOC(=O)[C@]12CCC(C)(C)C[C@H]1C1=CC[C@@H]3[C@@]4(C)CC[C@H](O)C(C)(C)[C@@H]4CC[C@@]3(C)[C@]1(C)CC2`, 76.7 µM.

Regarding `CNCCOC(=O)[C@]12CCC(C)(C)C[C@H]1C1=CC[C@@H]3[C@@]4(C)CC[C@H](O)C(C)(C)[C@@H]4CC[C@@]3(C)[C@]1(C)CC2`, the IC50 came to 53.2 µM. Then `C[C@H]1[C@H](C)CC[C@]2(C(=O)OCC(=O)O)CC[C@]3(C)C(=CC[C@@H]4[C@@]5(C)CC[C@H](O)C(C)(C)[C@@H]5CC[C@]43C)[C@H]12`, with 188 µM.

`CCOC(=O)COC(=O)[C@]12CC[C@@H](C)[C@H](C)[C@H]1C1=CC[C@@H]3[C@@]4(C)CC[C@H](O)C(C)(C)[C@@H]4CC[C@@]3(C)[C@]1(C)CC2`: the IC50 stood at 4.1 µM. Consider `CC1(C)CC[C@]2(C(=O)O)CC[C@]3(C)C(=CC[C@@H]4[C@@]5(C)CC[C@H](OC(=O)/C=C\c6ccc(Cl)cc6)C(C)(C)[C@@H]5CC[C@]43C)[C@@H]2C1`, for which the concentration for half-maximal inhibition (IC50) amounted to 3.3 µM.

As for `COc1ccc(/C=C\C(=O)O[C@H]2CC[C@]3(C)[C@H]4CC=C5[C@@H]6CC(C)(C)CC[C@]6(C(=O)O)CC[C@@]5(C)[C@]4(C)CC[C@H]3C2(C)C)cc1`, the IC50 was determined as 16.9 µM. Then `CC1(C)CC[C@]2(C(=O)O)CC[C@]3(C)C(=CC[C@@H]4[C@@]5(C)CCC(=O)[C@@](C)(CO)[C@@H]5CC[C@]43C)[C@@H]2C1`, with 53.5 µM; and `CC1(C)CC[C@]2(C(=O)O)CC[C@]3(C)C(=CC[C@@H]4[C@@]5(C)CC/C(=N\O)C(C)(C)[C@@H]5CC[C@]43C)[C@@H]2C1`, with 225 µM. Under `CC1(C)CC[C@]2(C(=O)OCc3ccccc3)CC[C@]3(C)C(=CC[C@@H]4[C@@]5(C)CC/C(=N\O)C(C)(C)[C@@H]5CC[C@]43C)[C@@H]2C1` stands 20.8 µM; under `C[C@H]1[C@H](C)CC[C@]2(C(=O)O)CC[C@]3(C)C(=CC[C@@H]4[C@@]5(C)CC[C@H](OC(=O)CCC(=O)O)C(C)(C)[C@@H]5CC[C@]43C)[C@H]12`, 27.6 µM; under `CC1(C)CC[C@]2(C(=O)O)CC[C@]3(C)C(=CC[C@@H]4[C@@]5(C)C[C@@H](O)[C@H](O)[C@@](C)(CO)[C@@H]5CC[C@]43C)[C@@H]2C1` [ARJUNOLIC ACID], 103 µM. Then `CC1(C)CC[C@]2(C(=O)OCc3ccccc3)CC[C@]3(C)C(=CC[C@@H]4[C@@]5(C)C[C@H](O)[C@H](O)C(C)(C)[C@@H]5CC[C@]43C)[C@@H]2C1` [BENZYL AUGUSTATE], with 21.7 µM. In the case of `COC(=O)[C@]12CC[C@@H](C)[C@H](C)[C@H]1C1=CC[C@@H]3[C@@]4(C)C[C@@H](O)[C@H](O)C(C)(C)[C@@H]4CC[C@@]3(C)[C@]1(C)CC2` [COROSOLIC ACID METHYL ESTER], the IC50 turned out to be 33.7 µM.

For the compound `CC(=O)O[C@H]1CC[C@]2(C)[C@H]3CC=C4[C@@H]5[C@@H](C)[C@H](C)CC[C@]5(C(=O)O)CC[C@@]4(C)[C@]3(C)CC[C@H]2C1(C)C` [O-ACETYLURSOLIC ACID], the IC50 was 131 µM. Then `CC1(C)CC[C@]2(C(=O)O)CC[C@]3(C)C(=CC[C@@H]4[C@@]5(C)CC[C@H](OC(=O)CCC(=O)O)C(C)(C)[C@@H]5CC[C@]43C)[C@@H]2C1` [OLEANOLIC ACID 3-O-SUCCINATE], with 34.3 µM.
